Reference: patent US10633379B2, “Bromodomain inhibitors” (AbbVie Inc., priority 2016, dated 2020)

Columns and labels:
[1] = molecular target: BRD4 (BDI_K57-E168) (Homo sapiens (Human), UniProt O60885); assay: TR-FRET bromodomain binding assay, BRD4 BDI; conditions: mean Ki, calculated from IC50, probe Kd and probe concentration
How it was run: (§1)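 Probe displacement measured by TR-FRET after 1 h at room temperature, in 20 mM sodium phosphate pH 6.0 and 2% DMSO. BDI used 12 nM protein with 100 nM probe, BDII 4 nM with 30 nM probe, each with 1 nM europium antibody. Ki derived from fitted IC50, probe Kd and probe level.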

[2] = molecular target: BRD4 (BDII_E352-M457) (Homo sapiens (Human), UniProt O60885); assay: TR-FRET bromodomain binding assay, BRD4 BDII; conditions: mean Ki, calculated from IC50, probe Kd and probe concentration
How it was run: as §1

SMILES | Ki [1] | Ki [2]
Cc1cc(S(C)(=O)=O)cc(C)c1Oc1ncc(C(C)(C)O)cc1-c1cn(C)c(=O)c2[nH]c(C(=O)NC(C)(C)C)cc12 [Example 92, N-tert-butyl-4-{5-(2-hydroxypropan-2-yl)-2-[4-(methanesulfonyl)-2,6-dimethylphenoxy]pyridin-3-yl}-6-methyl-7-oxo-6,7-dihydro-1H-pyrrolo[2,3-c]pyridine-2-carboxamide] | 410 nM | 12.1 nM
CCNC(=O)c1cc2c(-c3cc(C(C)(C)O)cnc3Oc3c(C)cc(S(C)(=O)=O)cc3C)cn(C)c(=O)c2[nH]1 [Example 93, N-ethyl-4-{5-(2-hydroxypropan-2-yl)-2-[4-(methanesulfonyl)-2,6-dimethylphenoxy]pyridin-3-yl}-6-methyl-7-oxo-6,7-dihydro-1H-pyrrolo[2,3-c]pyridine-2-carboxamide] | 502 nM | 10.9 nM
CCNC(=O)c1cc2c(-c3cc(C(C)(C)O)cnc3Oc3c(C)cc(Cl)cc3C)cn(C)c(=O)c2[nH]1 [Example 94, 4-[2-(4-chloro-2,6-dimethylphenoxy)-5-(2-hydroxypropan-2-yl)pyridin-3-yl]-N-ethyl-6-methyl-7-oxo-6,7-dihydro-1H-pyrrolo[2,3-c]pyridine-2-carboxamide] | 236 nM | 3.7 nM
Cc1cc(Cl)cc(C)c1Oc1ncc(C(C)(C)O)cc1-c1cn(C)c(=O)c2[nH]c(C(=O)NC(C)(C)C)cc12 [Example 95, N-tert-butyl-4-[2-(4-chloro-2,6-dimethylphenoxy)-5-(2-hydroxypropan-2-yl)pyridin-3-yl]-6-methyl-7-oxo-6,7-dihydro-1H-pyrrolo[2,3-c]pyridine-2-carboxamide] | 333 nM | 4.8 nM
CCNC(=O)c1cc2c(-c3nc(C(C)(C)O)ccc3Oc3c(C)cc(F)cc3C)cn(C)c(=O)c2[nH]1 [Example 96, N-ethyl-4-[3-(4-fluoro-2,6-dimethylphenoxy)-6-(2-hydroxypropan-2-yl)pyridin-2-yl]-6-methyl-7-oxo-6,7-dihydro-1H-pyrrolo[2,3-c]pyridine-2-carboxamide] | 801 nM | 9.1 nM
Cc1cc(F)cc(C)c1Oc1ccc(C(C)(C)O)nc1-c1cn(C)c(=O)c2[nH]c(C(=O)NC(C)(C)C)cc12 [Example 97, N-tert-butyl-4-[3-(4-fluoro-2,6-dimethylphenoxy)-6-(2-hydroxypropan-2-yl)pyridin-2-yl]-6-methyl-7-oxo-6,7-dihydro-1H-pyrrolo[2,3-c]pyridine-2-carboxamide] | 657 nM | 24.7 nM
CCNC(=O)c1cc2c(-c3cc(C(C)(C)O)ccc3Oc3c(C)cc(F)cc3C(F)F)cn(C)c(=O)c2[nH]1 [Example 98, 4-{2-[2-(difluoromethyl)-4-fluoro-6-methylphenoxy]-5-(2-hydroxypropan-2-yl)phenyl}-N-ethyl-6-methyl-7-oxo-6,7-dihydro-1H-pyrrolo[2,3-c]pyridine-2-carboxamide] | 682 nM | 9.6 nM
CCNC(=O)c1cc2c(-c3cc(C(C)(C)O)ccc3Oc3c(C)ccc(Cl)c3C)cn(C)c(=O)c2[nH]1 [Example 99, 4-[2-(3-chloro-2,6-dimethylphenoxy)-5-(2-hydroxypropan-2-yl)phenyl]-N-ethyl-6-methyl-7-oxo-6,7-dihydro-1H-pyrrolo[2,3-c]pyridine-2-carboxamide] | 431 nM | 1.8 nM
Cn1cc(-c2cc(C(C)(C)O)cnc2Oc2c(Cl)cc(F)cc2Cl)c2cc(C(=O)NC(C)(C)C)[nH]c2c1=O [Example 100, N-tert-butyl-4-[2-(2,6-dichloro-4-fluorophenoxy)-5-(2-hydroxypropan-2-yl)pyridin-3-yl]-6-methyl-7-oxo-6,7-dihydro-1H-pyrrolo[2,3-c]pyridine-2-carboxamide] | 115 nM | 5.6 nM
CCNC(=O)c1cc2c(-c3cc(C(C)(C)O)cnc3Oc3c(Cl)cc(F)cc3Cl)cn(C)c(=O)c2[nH]1 [Example 101, 4-[2-(2,6-dichloro-4-fluorophenoxy)-5-(2-hydroxypropan-2-yl)pyridin-3-yl]-N-ethyl-6-methyl-7-oxo-6,7-dihydro-1H-pyrrolo[2,3-c]pyridine-2-carboxamide] | 110 nM | 2.5 nM
CCNC(=O)c1cc2c(-c3cc(C(C)(O)CF)cnc3Oc3c(C)cc(Cl)cc3C)cn(C)c(=O)c2[nH]1 (stereo not drawn) [Example 102, 4-[2-(4-chloro-2,6-dimethylphenoxy)-5-(1-fluoro-2-hydroxypropan-2-yl)pyridin-3-yl]-N-ethyl-6-methyl-7-oxo-6,7-dihydro-1H-pyrrolo[2,3-c]pyridine-2-carboxamide] | 309 nM | 2.5 nM
Cc1cc(Cl)cc(C)c1Oc1ncc(C(C)(O)CF)cc1-c1cn(C)c(=O)c2[nH]c(C(=O)NC(C)(C)C)cc12 (stereo not drawn) [Example 103, N-tert-butyl-4-[2-(4-chloro-2,6-dimethylphenoxy)-5-(1-fluoro-2-hydroxypropan-2-yl)pyridin-3-yl]-6-methyl-7-oxo-6,7-dihydro-1H-pyrrolo[2,3-c]pyridine-2-carboxamide] | 450 nM | 3.3 nM
CCNC(=O)c1cc2c(-c3cc(C(C)(C)O)ccc3Oc3c(C)ccc(F)c3C)cn(C)c(=O)c2[nH]1 [Example 104, N-ethyl-4-[2-(3-fluoro-2,6-dimethylphenoxy)-5-(2-hydroxypropan-2-yl)phenyl]-6-methyl-7-oxo-6,7-dihydro-1H-pyrrolo[2,3-c]pyridine-2-carboxamide] | 375 nM | 1.2 nM
CCNC(=O)c1cc2c(-c3cc(C(C)(O)CC(C)C)ccc3Oc3c(C)cccc3C)cn(C)c(=O)c2[nH]1 (stereo not drawn) [Example 105, 4-[2-(2,6-dimethylphenoxy)-5-(2-hydroxy-4-methylpentan-2-yl)phenyl]-N-ethyl-6-methyl-7-oxo-6,7-dihydro-1H-pyrrolo[2,3-c]pyridine-2-carboxamide] | 1340 nM | 2.5 nM
CCNC(=O)c1cc2c(-c3cc(C(C)(C)O)ccc3Oc3c(C)cc(C(C)(C)O)cc3C)cn(C)c(=O)c2[nH]1 [Example 107, N-ethyl-4-{5-(2-hydroxypropan-2-yl)-2-[4-(2-hydroxypropan-2-yl)-2,6-dimethylphenoxy]phenyl}-6-methyl-7-oxo-6,7-dihydro-1H-pyrrolo[2,3-c]pyridine-2-carboxamide] | 231 nM | 0.8 nM
Cc1cc(C(C)(C)O)cc(C)c1Oc1ccc(C(C)(C)O)cc1-c1cn(C)c(=O)c2[nH]c(C(=O)NC(C)(C)C)cc12 [Example 108, N-tert-butyl-4-{5-(2-hydroxypropan-2-yl)-2-[4-(2-hydroxypropan-2-yl)-2,6-dimethylphenoxy]phenyl}-6-methyl-7-oxo-6,7-dihydro-1H-pyrrolo[2,3-c]pyridine-2-carboxamide] | 175 nM | 1.6 nM
CCNC(=O)c1cc2c(-c3cc(C(C)(C)O)cnc3Oc3c(C)ccc(Cl)c3C)cn(C)c(=O)c2[nH]1 [Example 109, 4-[2-(3-chloro-2,6-dimethylphenoxy)-5-(2-hydroxypropan-2-yl)pyridin-3-yl]-N-ethyl-6-methyl-7-oxo-6,7-dihydro-1H-pyrrolo[2,3-c]pyridine-2-carboxamide] | 169 nM | 1.1 nM
CCNC(=O)c1cc2c(-c3cc(C(C)(C)O)ccc3-c3ccc(OC(F)(F)F)cc3)cn(C)c(=O)c2[nH]1 [Example 110, N-ethyl-4-[4-(2-hydroxypropan-2-yl)-4′-(trifluoromethoxy) [1,1′-biphenyl]-2-yl]-6-methyl-7-oxo-6,7-dihydro-1H-pyrrolo[2,3-c]pyridine-2-carboxamide] | 224 nM | 2 nM
CCNC(=O)c1cc2c(-c3cc(C(C)(C)O)ccc3C3=CCC(F)(F)CC3)cn(C)c(=O)c2[nH]1 [Example 111, 4-[4′,4′-difluoro-4-(2-hydroxypropan-2-yl)[2′,3′,4′,5′-tetrahydro[1,1′-biphenyl]]-2-yl]-N-ethyl-6-methyl-7-oxo-6,7-dihydro-1H-pyrrolo[2,3-c]pyridine-2-carboxamide] | 150 nM | 1.4 nM
Cc1cc(F)cc(C)c1Oc1ccc(C(C)(C)O)cc1-c1cn(C)c(=O)c2[nH]c(C(N)=O)cc12 [Example 112, 4-[2-(4-fluoro-2,6-dimethylphenoxy)-5-(2-hydroxypropan-2-yl)phenyl]-6-methyl-7-oxo-6,7-dihydro-1H-pyrrolo[2,3-c]pyridine-2-carboxamide] | 332 nM | 2.3 nM
CCNC(=O)c1cc2c(-c3cc(C(C)(C)O)ccc3C3=CCC(C)CC3)cn(C)c(=O)c2[nH]1 (stereo not drawn) [Example 113, N-ethyl-4-[4-(2-hydroxypropan-2-yl)-4′-methyl[2′,3′,4′,5′-tetrahydro[1,1′-biphenyl]]-2-yl]-6-methyl-7-oxo-6,7-dihydro-1H-pyrrolo[2,3-c]pyridine-2-carboxamide] | 98 nM | 1.5 nM
CCNC(=O)c1cc2c(-c3cc(C(C)(C)O)ccc3C3=CCCC3)cn(C)c(=O)c2[nH]1 [Example 114, 4-[2-(cyclopent-1-en-1-yl)-5-(2-hydroxypropan-2-yl)phenyl]-N-ethyl-6-methyl-7-oxo-6,7-dihydro-1H-pyrrolo[2,3-c]pyridine-2-carboxamide] | 96 nM | 1.3 nM
CCNC(=O)c1cc2c(-c3cc(C(C)(O)CO)ccc3Oc3c(C)cccc3Cl)cn(C)c(=O)c2[nH]1 (stereo not drawn) [Example 115, 4-[2-(2-chloro-6-methylphenoxy)-5-(1,2-dihydroxypropan-2-yl)phenyl]-N-ethyl-6-methyl-7-oxo-6,7-dihydro-1H-pyrrolo[2,3-c]pyridine-2-carboxamide] | 323 nM | 1.4 nM
Cc1cccc(Cl)c1Oc1ccc(C(C)(O)CO)cc1-c1cn(C)c(=O)c2[nH]c(C(=O)NC(C)(C)C)cc12 (stereo not drawn) [Example 116, N-tert-butyl-4-[2-(2-chloro-6-methylphenoxy)-5-(1,2-dihydroxypropan-2-yl)phenyl]-6-methyl-7-oxo-6,7-dihydro-1H-pyrrolo[2,3-c]pyridine-2-carboxamide] | 756 nM | 2.9 nM
